{"source": "patent US20230271938A1", "about": "“BENZIMIDAZOLES FOR USE IN THE TREATMENT OF CANCER AND INFLAMMATORY DISEASES” (Capella Therapeutics, Inc., priority 2015, published 2023)", "key": {"[1]": {"biological_target": "T1, TXK (Homo sapiens, UniProt P42681)", "T1 sequence (P42681 1-527)": "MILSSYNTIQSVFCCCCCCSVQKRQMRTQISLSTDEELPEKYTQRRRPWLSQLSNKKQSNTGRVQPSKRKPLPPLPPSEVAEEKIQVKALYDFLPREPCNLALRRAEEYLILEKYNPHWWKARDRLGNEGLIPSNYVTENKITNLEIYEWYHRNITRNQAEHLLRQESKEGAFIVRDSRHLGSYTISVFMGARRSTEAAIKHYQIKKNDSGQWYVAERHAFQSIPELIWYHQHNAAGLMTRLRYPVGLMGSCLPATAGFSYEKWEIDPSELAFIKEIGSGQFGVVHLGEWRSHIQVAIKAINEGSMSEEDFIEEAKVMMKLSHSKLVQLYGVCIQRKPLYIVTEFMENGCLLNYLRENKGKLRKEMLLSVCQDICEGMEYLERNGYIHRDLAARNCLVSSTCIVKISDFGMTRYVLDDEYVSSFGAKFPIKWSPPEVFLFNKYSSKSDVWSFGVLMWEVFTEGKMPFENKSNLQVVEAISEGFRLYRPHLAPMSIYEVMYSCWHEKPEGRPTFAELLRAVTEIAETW", "assay": "Inhibition of TXK kinase", "format": "biochemical", "details": "1% DMSO", "excerpt": "(§1) The Z′-LYTE® biochemical assay is a fluorescence-based, coupled-enzyme assay based on the differential sensitivity of phosphorylated and non-phosphorylated peptides to proteolytic cleavage. A peptide substrate for a kinase is labeled with two fluorophores, one at each end, to form a FRET pair.\n(§2) In the primary reaction, the kinase transfers the gamma-phosphate of ATP to a single tyrosine, serine, or threonine residue in the synthetic FRET-peptide substrate. In the secondary reaction, a site-specific protease recognizes and cleaves non-phosphorylated FRET-peptides. Cleavage disrupts FRET between the donor and acceptor fluorophores on the FRET-peptide, whereas uncleaved, phosphorylated FRET-peptides maintain FRET. An inhibitory activity of a compound is thus determined from its effect on the cleavage of the synthetic FRET-peptide substrate.\nInhibition of BMX, BTK, ITK, and TXK kinases by a test compound is determined in 50 mM HEPES, pH 7.5, 0.01% BRIJ-35, 10 mM MgCl2, and 1 mM EGTA in the presence of 1% DMSO by volume.\n(§3) Inhibition of BMX, BTK, PIK3C-D, ITK, TEC, and TXK kinases by compound A2 was measured using one of the assays described in Examples 2A and 3A."}, "[2]": {"biological_target": "T2, TEC (Homo sapiens, UniProt P42680)", "T2 sequence (P42680 1-631)": "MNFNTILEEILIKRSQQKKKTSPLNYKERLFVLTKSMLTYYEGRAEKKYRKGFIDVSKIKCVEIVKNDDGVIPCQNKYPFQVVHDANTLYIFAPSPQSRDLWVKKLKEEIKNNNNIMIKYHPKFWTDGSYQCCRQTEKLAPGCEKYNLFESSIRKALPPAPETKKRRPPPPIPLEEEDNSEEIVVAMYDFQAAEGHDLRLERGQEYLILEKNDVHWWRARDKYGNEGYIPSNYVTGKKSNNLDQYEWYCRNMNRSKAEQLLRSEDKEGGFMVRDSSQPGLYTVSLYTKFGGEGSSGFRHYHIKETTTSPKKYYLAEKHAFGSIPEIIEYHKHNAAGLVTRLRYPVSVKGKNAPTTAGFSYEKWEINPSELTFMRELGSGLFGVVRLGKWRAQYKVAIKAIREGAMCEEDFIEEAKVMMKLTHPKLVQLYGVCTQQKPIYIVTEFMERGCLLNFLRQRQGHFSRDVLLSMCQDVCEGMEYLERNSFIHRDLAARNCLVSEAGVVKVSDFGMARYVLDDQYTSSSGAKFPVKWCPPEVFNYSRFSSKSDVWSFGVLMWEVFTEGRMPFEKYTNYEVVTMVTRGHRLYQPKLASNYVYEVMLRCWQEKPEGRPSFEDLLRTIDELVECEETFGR", "assay": "Inhibition of TEC kinase", "format": "binding", "details": "1% DMSO", "description": "Binding of an ALEXA FLUOR® conjugate or “tracer” to a kinase is detected by addition of a Eu-labeled anti-tag antibody. Binding of the tracer and antibody to a kinase results in a high degree of FRET, whereas displacement of the tracer with a kinase inhibitor results in a loss of FRET. An inhibitory activity of a compound is thus determined from the extent of the FRET signal loss. Inhibition of ITK and TEC kinases by a test compound is determined in the presence of 1% DMSO.\nas §3"}, "[3]": {"biological_target": "PIK3C-D (Homo sapiens, UniProt O00329)", "sequence (O00329 whole entry)": "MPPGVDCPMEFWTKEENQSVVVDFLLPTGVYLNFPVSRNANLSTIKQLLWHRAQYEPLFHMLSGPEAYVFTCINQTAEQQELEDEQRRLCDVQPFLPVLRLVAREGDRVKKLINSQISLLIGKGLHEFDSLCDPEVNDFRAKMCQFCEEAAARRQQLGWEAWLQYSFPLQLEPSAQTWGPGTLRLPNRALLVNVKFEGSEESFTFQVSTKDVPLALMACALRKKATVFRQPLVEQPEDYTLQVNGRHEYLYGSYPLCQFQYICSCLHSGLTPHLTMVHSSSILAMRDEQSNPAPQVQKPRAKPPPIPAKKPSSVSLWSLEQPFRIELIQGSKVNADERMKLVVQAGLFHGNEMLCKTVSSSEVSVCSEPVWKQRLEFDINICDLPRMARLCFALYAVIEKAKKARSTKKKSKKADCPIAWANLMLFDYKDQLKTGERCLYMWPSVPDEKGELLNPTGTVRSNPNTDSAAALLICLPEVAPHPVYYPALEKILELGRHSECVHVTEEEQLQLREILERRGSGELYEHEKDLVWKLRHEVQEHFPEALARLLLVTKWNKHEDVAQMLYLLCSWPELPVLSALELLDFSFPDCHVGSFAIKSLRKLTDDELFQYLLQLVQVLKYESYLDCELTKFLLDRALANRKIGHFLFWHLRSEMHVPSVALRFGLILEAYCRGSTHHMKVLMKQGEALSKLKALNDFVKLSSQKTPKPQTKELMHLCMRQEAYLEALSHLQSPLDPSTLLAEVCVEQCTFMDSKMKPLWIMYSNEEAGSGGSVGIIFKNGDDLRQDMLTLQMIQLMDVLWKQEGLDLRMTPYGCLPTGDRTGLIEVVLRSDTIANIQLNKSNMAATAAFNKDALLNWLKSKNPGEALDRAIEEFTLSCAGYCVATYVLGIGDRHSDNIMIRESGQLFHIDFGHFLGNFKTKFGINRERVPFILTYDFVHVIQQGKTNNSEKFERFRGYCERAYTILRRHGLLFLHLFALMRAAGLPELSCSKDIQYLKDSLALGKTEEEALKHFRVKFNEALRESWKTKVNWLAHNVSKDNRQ", "sequence (P27986 whole entry partner)": "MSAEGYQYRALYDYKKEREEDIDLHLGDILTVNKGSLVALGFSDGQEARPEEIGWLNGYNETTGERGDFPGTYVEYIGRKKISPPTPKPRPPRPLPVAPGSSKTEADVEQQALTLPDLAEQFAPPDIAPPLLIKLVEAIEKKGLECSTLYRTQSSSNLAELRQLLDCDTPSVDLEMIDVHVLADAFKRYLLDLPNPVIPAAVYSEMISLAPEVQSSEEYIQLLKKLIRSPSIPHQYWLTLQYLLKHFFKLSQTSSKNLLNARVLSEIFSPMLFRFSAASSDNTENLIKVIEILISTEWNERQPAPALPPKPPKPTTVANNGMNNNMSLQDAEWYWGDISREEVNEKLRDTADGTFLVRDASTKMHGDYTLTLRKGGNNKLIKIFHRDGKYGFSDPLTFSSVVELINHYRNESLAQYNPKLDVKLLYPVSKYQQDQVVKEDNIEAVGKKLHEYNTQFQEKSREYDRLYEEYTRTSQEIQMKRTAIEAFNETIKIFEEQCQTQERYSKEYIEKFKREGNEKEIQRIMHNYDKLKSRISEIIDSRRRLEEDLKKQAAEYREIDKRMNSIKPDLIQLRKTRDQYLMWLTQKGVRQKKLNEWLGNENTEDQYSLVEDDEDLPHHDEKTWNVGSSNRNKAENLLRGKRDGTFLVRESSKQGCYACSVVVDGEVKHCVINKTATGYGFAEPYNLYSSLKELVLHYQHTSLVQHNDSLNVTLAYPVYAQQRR", "assay": "Inhibition of PIK3C-D kinase", "format": "biochemical", "excerpt": "as §1, §2\nBinding of an ALEXA FLUOR® conjugate or “tracer” to a kinase is detected by addition of a Eu-labeled anti-tag antibody. […] An inhibitory activity of a compound is thus determined from the extent of the FRET signal loss. Inhibition of ITK and TEC kinases by a test compound is determined in the presence of 1% DMSO.\nas §3"}}, "note": "pIC50: −log10 of the molar value."}
{"smiles": "C=CC(=O)N1CCCC[C@@H](n2c(NC(=O)c3ccnc(C)c3)nc3cccc(OC4CCN(C(C)=O)CC4)c32)C1", "note": "[Compound A2, (R)-N-(7-((1-acetylpiperidin-4-yl)oxy)-1-(1-acryloylazepan-3-yl)-1H-benzo[d]imidazol-2-yl)-2-methylisonicotinamide]", "values": [{"measurement": "pIC50", "setting": "[1]", "result": "≥ 8.00"}, {"measurement": "Inhibition", "setting": "[1]", "result": "A (A represents a value no greater than 10 nM or no less than 90% inhibition)"}, {"measurement": "pIC50", "setting": "[2]", "result": "≥ 8.00"}, {"measurement": "Inhibition", "setting": "[2]", "result": "A (A represents a value no greater than 10 nM or no less than 90% inhibition)"}, {"measurement": "pIC50", "setting": "[3]", "result": "≥ 8.00"}, {"measurement": "Inhibition", "setting": "[3]", "result": "A (A represents a value no greater than 10 nM or no less than 90% inhibition)"}]}
